Assay results reported in patent US20240366599A1, “HUMAN EFFICACIOUS DOSE AND DOSAGE SCHEDULE OF SPR720” (SPERO THERAPEUTICS, INC., priority 2021, published 2024).

Tests used:
Type in all cases: in vivo, human
[1] = Single ascending dose (SAD) study: safety and tolerability
Protocol: (§1) The following study was conducted in healthy volunteers to evaluate the safety, tolerability, and pharmacokinetics of SPR720/SPR719. The study included 7 SAD cohorts, of which one was a food effect cohort. SPR720 or placebo (n=8/cohort, 3:1 randomization) were administered to subjects at doses of 100 to 2000 mg in the fasted or fed state. The cohorts administered SPR720 in the fed state were administered 1000 mg or 500 mg (healthy elderly cohort) SPR720. A schematic of the study design appears in FIG. 1.

[2] = Single ascending dose (SAD) study: pharmacokinetics of SPR719 after oral SPR720; settings: SPR720 1000 mg, fed vs fasted; considered non-clinically significant
Protocol: as §1

[3] = Multiple ascending dose (MAD) study: safety and tolerability
Protocol: The multiple ascending dose study utilized 5 cohorts of 8 subjects. Three cohorts were administered a total daily dose of 500 mg to 1500 mg in the fasted state for 7 days. Two cohorts were administered a total daily dose of 500 mg or 1000 mg in the fed state for 14 days. Safety was also monitored throughout the study. […] This conclusion was further supported by stable SPR719 trough concentrations by Day 7 (data not shown). Mean plasma concentration/time curves are shown for the MAD cohorts at days 1 (FIG. 3A), 7 (FIG. 3B), and 14 (FIG. 3C). 2.

[4] = SAD Cohort 4, 1000 mg Fasted, N=6
[5] = MAD Cohort 1, 500 mg 7 days, fasted, N=6
[6] = MAD Cohort 2, 1000 mg 7 days, fasted, N=6
[7] = MAD Cohort 3, 750 mg q12 h 7 days, fasted, N=6
[8] = MAD Cohort 4, 500 mg 14 days, fed, N=6
[9] = MAD Cohort 5, 1000 mg 14 days, fed, N=6

CCNC(=O)Nc1nc2cc(-c3cnc(C(C)(C)OP(=O)(O)O)cn3)c(F)c([C@H]3CCCO3)c2[nH]1 [SPR720, fobrepodacin]
Incidence of TEAE: Diarrhea ([1]; SAD 500 mg Elderly, N=6): 0 Number (%) of Subjects | Incidence of TEAE: Headache ([1]; SAD 500 mg Elderly, N=6): 0 Number (%) of Subjects | Incidence of TEAE: Nausea ([1]; SAD 500 mg Elderly, N=6): 0 Number (%) of Subjects | Incidence of TEAE: Vomiting ([1]; SAD 500 mg Elderly, N=6): 0 Number (%) of Subjects | Subjects reporting TEAEs ([1]; SAD 1500 mg cohort): 66.7% | Subjects reporting TEAEs ([1]; SAD 2000 mg cohort): 100% | Incidence of TEAE: Diarrhea ([1]; SAD Cohort 1, 100 mg, N=6): 0 Number (%) of Subjects | Incidence of TEAE: Headache ([1]; SAD Cohort 1, 100 mg, N=6): 0 Number (%) of Subjects | Incidence of TEAE: Nausea ([1]; SAD Cohort 1, 100 mg, N=6): 0 Number (%) of Subjects | Incidence of TEAE: Vomiting ([1]; SAD Cohort 1, 100 mg, N=6): 0 Number (%) of Subjects | Incidence of TEAE: Diarrhea ([1]; SAD Cohort 2, 250 mg, N=6): 0 Number (%) of Subjects | Incidence of TEAE: Headache ([1]; SAD Cohort 2, 250 mg, N=6): 0 Number (%) of Subjects | Incidence of TEAE: Nausea ([1]; SAD Cohort 2, 250 mg, N=6): 0 Number (%) of Subjects | Incidence of TEAE: Vomiting ([1]; SAD Cohort 2, 250 mg, N=6): 0 Number (%) of Subjects | Incidence of TEAE: Diarrhea ([1]; SAD Cohort 3, 500 mg, N=6): 1 (16.7) Number (%) of Subjects | Incidence of TEAE: Headache ([1]; SAD Cohort 3, 500 mg, N=6): 0 Number (%) of Subjects | Incidence of TEAE: Nausea ([1]; SAD Cohort 3, 500 mg, N=6): 0 Number (%) of Subjects | Incidence of TEAE: Vomiting ([1]; SAD Cohort 3, 500 mg, N=6): 0 Number (%) of Subjects | Incidence of TEAE: Diarrhea [1, 4]: 0 Number (%) of Subjects | Incidence of TEAE: Headache [1, 4]: 1 (16.7) Number (%) of Subjects | Incidence of TEAE: Nausea [1, 4]: 0 Number (%) of Subjects | Incidence of TEAE: Vomiting [1, 4]: 0 Number (%) of Subjects | Incidence of TEAE: Diarrhea ([1]; SAD Cohort 4, 1000 mg Fed, N=6): 0 Number (%) of Subjects | Incidence of TEAE: Headache ([1]; SAD Cohort 4, 1000 mg Fed, N=6): 0 Number (%) of Subjects | Incidence of TEAE: Nausea ([1]; SAD Cohort 4, 1000 mg Fed, N=6): 0 Number (%) of Subjects | Incidence of TEAE: Vomiting ([1]; SAD Cohort 4, 1000 mg Fed, N=6): 0 Number (%) of Subjects | Incidence of TEAE: Diarrhea ([1]; SAD Cohort 5, 1500 mg, N=6): 0 Number (%) of Subjects | Incidence of TEAE: Headache ([1]; SAD Cohort 5, 1500 mg, N=6): 3 (50.0) Number (%) of Subjects | Incidence of TEAE: Nausea ([1]; SAD Cohort 5, 1500 mg, N=6): 4 (66.7) Number (%) of Subjects | Incidence of TEAE: Vomiting ([1]; SAD Cohort 5, 1500 mg, N=6): 3 (50.0) Number (%) of Subjects | Incidence of TEAE: Diarrhea ([1]; SAD Cohort 6, 2000 mg, N=6): 2 (33.3) Number (%) of Subjects | Incidence of TEAE: Headache ([1]; SAD Cohort 6, 2000 mg, N=6): 3 (50.0) Number (%) of Subjects | Incidence of TEAE: Nausea ([1]; SAD Cohort 6, 2000 mg, N=6): 5 (83.3) Number (%) of Subjects | Incidence of TEAE: Vomiting ([1]; SAD Cohort 6, 2000 mg, N=6): 5 (83.3) Number (%) of Subjects | Incidence of TEAE: Diarrhea ([1]; SAD Overall SPR720, n=42): 3 (7.1) Number (%) of Subjects | Incidence of TEAE: Headache ([1]; SAD Overall SPR720, n=42): 7 (16.7) Number (%) of Subjects | Incidence of TEAE: Nausea ([1]; SAD Overall SPR720, n=42): 9 (21.4) Number (%) of Subjects | Incidence of TEAE: Vomiting ([1]; SAD Overall SPR720, n=42): 8 (19.0) Number (%) of Subjects | Subjects reporting TEAEs ([1]; SAD overall, 18 of 42 subjects): 42.9% | Total number of TEAEs reported ([1]; SAD overall, 42 subjects): 35 | Serious adverse events ([1]; SAD study): No serious adverse events | Severity of TEAEs ([1]; SAD, all TEAEs): mild or moderate | Food effect: plasma exposure after high fat meal relative to fasted state [2]: no significant food effect | Subjects reporting TEAEs ([3]; MAD 1000 mg cohorts): 50.0% | Subjects reporting TEAEs ([3]; MAD 1500 mg (750 mg q12h) cohort): 66.7% | Incidence of TEAE: Abdominal Pain [3, 5]: 0 Number (%) of Subjects | Incidence of TEAE: Diarrhea (first line) [3, 5]: 2 (33.3) Number (%) of Subjects | Incidence of TEAE: Diarrhea (second line) [3, 5]: 0 Number (%) of Subjects | Incidence of TEAE: Headache [3, 5]: 2 (33.3) Number (%) of Subjects | Incidence of TEAE: Nausea [3, 5]: 2 (33.3) Number (%) of Subjects | Incidence of TEAE: Vomiting [3, 5]: 1 (16.7) Number (%) of Subjects | Incidence of TEAE: Abdominal Pain [3, 6]: 1 (16.7) Number (%) of Subjects | Incidence of TEAE: Diarrhea (first line) [3, 6]: 4 (66.7) Number (%) of Subjects | Incidence of TEAE: Diarrhea (second line) [3, 6]: 2 (33.3) Number (%) of Subjects | Incidence of TEAE: Headache [3, 6]: 3 (50.0) Number (%) of Subjects | Incidence of TEAE: Nausea [3, 6]: 1 (16.7) Number (%) of Subjects | Incidence of TEAE: Vomiting [3, 6]: 2 (33.3) Number (%) of Subjects | Incidence of TEAE: Abdominal Pain [3, 7]: 0 Number (%) of Subjects | Incidence of TEAE: Diarrhea (first line) [3, 7]: 4 (66.7) Number (%) of Subjects | Incidence of TEAE: Diarrhea (second line) [3, 7]: 1 (16.7) Number (%) of Subjects | Incidence of TEAE: Headache [3, 7]: 2 (33.3) Number (%) of Subjects | Incidence of TEAE: Nausea [3, 7]: 3 (50.0) Number (%) of Subjects | Incidence of TEAE: Vomiting [3, 7]: 1 (16.7) Number (%) of Subjects | Incidence of TEAE: Abdominal Pain [3, 8]: 0 Number (%) of Subjects | Incidence of TEAE: Diarrhea (first line) [3, 8]: 0 Number (%) of Subjects | Incidence of TEAE: Diarrhea (second line) [3, 8]: 0 Number (%) of Subjects | Incidence of TEAE: Headache [3, 8]: 1 (16.7) Number (%) of Subjects | Incidence of TEAE: Nausea [3, 8]: 0 Number (%) of Subjects | Incidence of TEAE: Vomiting [3, 8]: 0 Number (%) of Subjects | Incidence of TEAE: Abdominal Pain [3, 9]: 1 (16.7) Number (%) of Subjects | Incidence of TEAE: Diarrhea (first line) [3, 9]: 3 (50.0) Number (%) of Subjects | Incidence of TEAE: Diarrhea (second line) [3, 9]: 0 Number (%) of Subjects | Incidence of TEAE: Headache [3, 9]: 0 Number (%) of Subjects | Incidence of TEAE: Nausea [3, 9]: 1 (16.7) Number (%) of Subjects | Incidence of TEAE: Vomiting [3, 9]: 0 Number (%) of Subjects | Subjects who discontinued study drug due to increased pancreatic enzymes ([3]; MAD cohort 3 (750 mg q12h), asymptomatic, resolved without interventional treatment): One | Subjects reporting TEAEs ([3]; MAD overall, 18 of 30 subjects who received SPR720): 60.0% | Total number of TEAEs reported ([3]; MAD overall, 30 subjects): 101 | Serious adverse events ([3]; MAD study): No serious adverse events | Severity of TEAEs ([3]; MAD, all TEAEs): mild or moderate | Incidence of TEAE: Abdominal Pain ([3]; Overall MAD SPR720, N=30): 2 (6.7) Number (%) of Subjects | Incidence of TEAE: Diarrhea (first line) ([3]; Overall MAD SPR720, N=30): 13 (42.3) Number (%) of Subjects | Incidence of TEAE: Diarrhea (second line) ([3]; Overall MAD SPR720, N=30): 3 (10.0) Number (%) of Subjects | Incidence of TEAE: Headache ([3]; Overall MAD SPR720, N=30): 8 (26.7) Number (%) of Subjects | Incidence of TEAE: Nausea ([3]; Overall MAD SPR720, N=30): 7 (23.3) Number (%) of Subjects | Incidence of TEAE: Vomiting ([3]; Overall MAD SPR720, N=30): 4 (13.3) Number (%) of Subjects | Cases of Hy's Law ([3]; over 14 days of dosing): no cases | Elevations in ALT ([3]; over 14 days of dosing, slight, asymptomatic and reversible): < 3 ×ULN | Tolerability ([3]; repeat daily oral doses up to 1000 mg over maximum duration of 14 days): well-tolerated
